According to patent US20230265614A1, “WATER INSOLUBLE, HIGH MELTING POINT SACCHARIDE FATTY ACID ESTERS (SFAE)” (GREENTECH GLOBAL PTE. LTD., priority 2021, published 2023):

Assay: Solubility in water at 25° C. of specific SFAEs
Type: physicochemical
Conditions: water insoluble = does not dissolve in water at 25° C.

Row | Substance | Solubility in Water at 25° C.
1 | raffinose monolaurate | soluble
2 | trehalose dimyristate | Insoluble
3 | trehalose monopalmitate | Insoluble
4 | trehalose dilaurate | Insoluble
5 | trehalose monomyristate | Insoluble
6 | trehalose distearate | Insoluble
7 | trehalose monolaurate | soluble
8 | trehalose dipalmitate | Insoluble
9 | raffinose monostearate | soluble
10 | trehalose monostearate | Insoluble
